According to patent US20080090728A1, “Method for Improving Plant Growth” (BAYER CROPSCIENCE AG, priority 2004, published 2008):

Assays:
[1] = system: Eucalyptus seedlings (E. globulus); assay: Field trial, height of treated Eucalyptus seedlings (growth effect); type: in vivo; details: for Average height (cm): E. globulus seedlings
Text: (§1) A synergistic effect is always present when the growth effect of the combinations according to the invention exceed the total of the activities of the active compounds when applied individually. The expected activity for a given combination of two active compounds can be calculated as follows (cf. Colby, S.R., “Calculating Synergistic and Antagonistic Responses of Herbicide Combinations”, Weeds 15, (1967), 20-22): If • X is the growth effect when applying one compound selected from the class of agonists and antagonists of the nicotinic acetylcholine receptors at an application rate of m g/ha, • Y is the growth effect when applying fertilizer at an application rate of n g/ha and • E is the efficacy when applying the combination of A and B at an application rate of m and n g/ha, then [formula] The efficacy is calculated in %. 0% is an efficacy which corresponds to that of the control. If the actual growth effect exceeds the calculated value, then the activity of the combination is super additive, i.e. a synergistic effect exists. In this case, the efficacy which was actually observed must be greater than the value for the expected efficacy (E) calculated from the abovementioned formula. The trial was established using a Latin square design (4 treatments with 4 replications each) with 49 ligneous trees per plot for a total of 784 trees in the trial. Trees: Eucalyptus seedlings (E. globulus) The four treatments used were 1) control (nil treatment) 2) fertilizer only 3) insecticide (i.e. imidacloprid) only 4) insecticide (i.e. imidacloprid) plus fertilizer Bonitation of insect infestation and measurement of the height of the treated trees was done 7 months and 12 months after the trial has been started (start of trial: August 2003, bonitations: March 2004 and August 2004) All results are statistically evaluated having a significance level of 5% . Besides the mean value comparison the Fisher's PLSD test has been applied.

insect infestation = assay: Field trial, bonitation of insect infestation (defoliation by insect damage) on Eucalyptus seedlings; type: in vivo
Text: as §1

[2] = Bonitation August 2004, 12 months after start of trial
[3] = Bonitation March 2004, 7 months after start of trial

## O=[N+]([O-])NC1=NCCN1Cc1ccc(Cl)nc1 [imidacloprid only, Imidacloprid]
[1]; [2]
  Height of tree (% of control): 104 % of control
  Average height (cm): 125 cm
[1]; [3]
  Height of tree (% of control): 115 % of control
  Average height (cm): 86 cm
Insect infestation; [2]
  Average defoliation by insect damage (%): 60%
  Efficacy according to Abbott (%): 40%
Insect infestation; [3]
  Average defoliation by insect damage (%): 18%
  Efficacy according to Abbott (%): 71%
